What was measured:
[1] = tested on: RhlI/RhlR controlled rhamnolipid biosynthesis in P. aeruginosa; design: method as in ref 73 = [73]; 73. Manner S. Fallarero A. Abo Akademi University and University of Helsinki, Finland Evaluation of the Effects of the Leads in Rhamnolipid Biosynthesis Personal communication 2017; conditions: personal communication ref 73; cited from earlier work
E. coli K-12 = assay: Viable plate counts (bacterial growth); format: cell-based, Escherichia coli; conditions: 100 and 400 µM, 24 h
Procedure: (§1) Effects of the leads on bacterial growth were assessed by performing viable plate counts. Compounds at final concentrations of 100 and 400 µM and cultures of P. aeruginosa (ATCC 9027, ATCC 15422 and PA01) and E. coli K-12 (10^6 CFU/mL) were simultaneously added to the 96-microtiter well plates (200 µL per well). Untreated bacteria were included in control wells. The plates were incubated at 37 °C, without shaking for 24 h. At the end of this period, bacterial suspensions were transferred from the wells to Eppendorf tubes, and the tubes were sonicated for 10 min (25 °C, 35 kHz, Sonorex Digitec water bath (Bandelin, Zurich, Switzerland)). Each suspension was serially diluted in LB and plated on LB agar. The number of viable bacteria in each test concentration was counted after overnight incubation at 37 °C. Results were expressed as CFU/mL.

C. violaceum CV026 = assay: Violacein extraction assay (QS-mediated violacein production), mutant strain with exogenous autoinducer; format: cell-based, Chromobacterium violaceum; conditions: Chromobacterium violaceum, CV026, 24 h, read-out: Inhibition-% of violacein production
Procedure: (§2) The initial screening of compound library was conducted using two strains of C. violaceum as model bacterium, and two assays (violacein extraction and resazurin staining) in parallel as recently optimized in [26]. For the screening assays, overnight cultures of C. violaceum were diluted in LB broth supplemented with yeast extract (LBY) (0.1% w/v, Sigma Aldrich, St. Louis, MO, USA). Culture of C. violaceum CV026 was further supplemented with 0.5 µM N-(β-ketocaproyl)-L-Homoserine lactone (3-O-C6-(L)-HSL, Cayman chemicals, Ann Arbor, MI, USA) to induce the violacein production. Bacteria (10^6 CFU/mL) was exposed to compounds (400 µM) in a total volume of 200 µL in 96-microtiter well plates (Nunc, Roskilde, Denmark), and incubated at 27 °C, with shaking at 200 rpm for 24 h. DMSO was added in untreated control wells and bacteria-free wells with only LBY were included controls. Additionally, autoinducer-free wells containing only bacteria were included in C. violaceum CV026 plates. Plates were prepared in duplicates. Quercetin dihydrate (Carl Roth GmbH, Karlsruhe, Germany) at 400 µM was used as positive control in violacein extraction assay, and azithromycin (Cayman chemicals, Ann Arbor, MI, USA) at 10 µM in viability assay. Both control compounds were prepared in DMSO. DMSO concentration was 2.5% throughout the experiments.
(§3) After incubation period of 24 h, plates were centrifuged (Allegra™ X-12R Benchtop centrifuge, Beckman Coulter Inc., Fullerton, CA, USA) at 3000 rpm for 10 min to precipitate the violacein. Supernatants were discarded from the wells by pipetting, and pellets were re-suspended in 200 μL of 96% ethanol by scraping and mixing followed by centrifugation (3000 rpm, 10 min). Thereafter, 100 μL of supernatants were transferred to sterile 96-microtiter well plates, and violacein was quantified by reading the optical density at 595 nm using Varioskan Flash. Inhibition of violacein production was expressed as inhibition percentages of the untreated biofilms (Equation (1)):Inhibition-% = [(untreated control OD595 − sample OD595)/(untreated control OD595 − media control OD595)] × 100%(1) in which untreated control = C. violaceum + DMSO, media control = LBY, and sample = C. violaceum treated with a compound. Later on, violacein extraction assay was also utilized for the determination of half inhibitory concentrations of the compounds.

[2] = tested on: Staphylococcus aureus biofilms; design: method as in PMID 24071942; conditions: cited from earlier work
C. violaceum ATCC 31532 = assay: Violacein extraction assay (QS-mediated violacein production); format: cell-based, Chromobacterium violaceum; conditions: Chromobacterium violaceum; for inhibition at 400 µM: ATCC31532, 24 h, primary screening, 24 h, C. violaceum ATCC 31532, read-out: Inhibition-% of violacein production; for IC50: ATCC31532, C. violaceum ATCC 31532, 15 concentration points, read-out: IC50 of violacein production
Procedure: as §2, §3

P. aeruginosa PAO1 [3] = assay: Swimming motility assay; format: cell-based; conditions: Pseudomonas aeruginosa, highest test concentration (400 µM)
Procedure: (§4) Assays were performed according to the protocols previously described in [30, 74] with some modifications. The swarming agar was prepared in MQ-water consisting of 0.3% (w/v) agar, 1% (w/v) peptone, 0.5% (w/v) yeast extract and 0.5% (w/v) sodium chloride, and the swimming agar similarly but without yeast extract. Compounds at a final concentration of 400 µM and 100 µM were pre-mixed with 5 mL of agar, and poured over solidified LB agar plates (10 mL/petri dish) as overlays. The plates were allowed to dry at 30 °C for three hours followed by point inoculation with 2 µL of P. aeruginosa PAO1 (~10^8 CFU/mL) and incubation at 37 °C for 18 h. Quercetin was used as a control. Diameters of the swarming and swimming zones were measured after the incubation periods.

[4] = tested on: P. aeruginosa (ATCC 9027, ATCC 15422 and PA01); assay: Viable plate counts (bacterial growth); format: cell-based, Pseudomonas aeruginosa; conditions: 100 and 400 µM, 24 h
Procedure: as §1

P. aeruginosa PAO1 [5] = assay: Swarming motility assay; format: cell-based; conditions: Pseudomonas aeruginosa, PAO1, read-out: Inhibition of swarming motility
Procedure: as §4

SMILES | Effect on rhamnolipid biosynthesis [1] | Bactericidal activity by viable plate counts (E. coli K-12) | inhibition at 400 µM (C. violaceum CV026) [%] | Anti-biofilm activity against S. aureus [2] | inhibition at 400 µM (C. violaceum ATCC 31532) [%] | IC50 (C. violaceum ATCC 31532) [µM] | inhibition at 400 µM (P. aeruginosa PAO1 [3]) [%] | Bactericidal activity by viable plate counts [4] | inhibition at 400 µM (P. aeruginosa PAO1 [5]) [%]
CCC(=O)Oc1c(-c2ccccc2Cl)oc2ccccc2c1=O [Compound 2117, 2-(2-chlorophenyl)-4-oxochromen-3-yl propanoate] | did not affect | Neither of the leads displayed any bactericidal activity | 102 | inactives | 102 | 9.6 | 28.1 | Neither of the leads displayed any bactericidal activity | 72.1
CCCCCCCCCC(=O)Oc1c(-c2ccc(OC)cc2)oc2ccccc2c1=O [Compound 2896, 2-(4-methoxyphenyl)-4-oxochromen-3-yl decanoate] | did not affect | Neither of the leads displayed any bactericidal activity | 91.2 | inactives | 94.5 | 13.9 | 33.9 | Neither of the leads displayed any bactericidal activity | 69.8

Source: paper PMC5983823, “Screening of Natural Product Derivatives Identifies Two Structurally Related Flavonoids as Potent Quorum Sensing Inhibitors against Gram-Negative Bacteria” (International Journal of Molecular Sciences, 2018)
